Test: mn = molality of the nth substance listed, in mol/kg
Details: 100 kPa, Liquid; for speed of sound: Frequency=3 MHz, Sing-around technique in a fixed-path interferometer; for mass density: Vibrating tube method

CC[N+]1(C)CCOCC1.O=S(=O)([N-]S(=O)(=O)C(F)(F)F)C(F)(F)F + C[S+](C)[O-]
Details	mass density, 298.15 K [kg/m3]	mass density, 303.15 K [kg/m3]	mass density, 308.15 K [kg/m3]	mass density, 313.15 K [kg/m3]	mass density, 318.15 K [kg/m3]	speed of sound, 298.15 K [m/s]	speed of sound, 303.15 K [m/s]	speed of sound, 308.15 K [m/s]	speed of sound, 313.15 K [m/s]	speed of sound, 318.15 K [m/s]
m1 = 0.01623	1097.17	1092.15	1087.13	1082.12	1077.11	1483.4	1466.5	1449.7	1433	1416.4
m1 = 0.02434	1098.11	1093.09	1088.07	1083.06	1078.05	1482.8	1465.9	1449.1	1432.4	1415.9
m1 = 0.03937	1099.83	1094.82	1089.8	1084.79	1079.78	1481.6	1464.8	1448	1431.3	1414.9
m1 = 0.04917	1100.95	1095.93	1090.92	1085.91	1080.9	1480.9	1464	1447.3	1430.7	1414.2
m1 = 0.063	1102.51	1097.5	1092.49	1087.48	1082.47	1479.8	1463	1446.3	1429.7	1413.3
m1 = 0.07874	1104.28	1099.27	1094.26	1089.26	1084.25	1478.6	1461.8	1445.2	1428.6	1412.2
m1 = 0.09932	1106.57	1101.56	1096.55	1091.55	1086.55	1477	1460.3	1443.7	1427.2	1410.8
m1 = 0.1197	1108.8	1103.8	1098.79	1093.79	1088.79	1475.5	1458.8	1442.3	1425.8	1409.5
m1 = 0.1515	1112.25	1107.24	1102.24	1097.25	1092.25	1473.2	1456.5	1440	1423.6	1407.4

CCCC[N+]1(C)CCOCC1.O=S(=O)([N-]S(=O)(=O)C(F)(F)F)C(F)(F)F + C[S+](C)[O-]
Details	mass density, 298.15 K [kg/m3]	mass density, 303.15 K [kg/m3]	mass density, 308.15 K [kg/m3]	mass density, 313.15 K [kg/m3]	mass density, 318.15 K [kg/m3]	speed of sound, 298.15 K [m/s]	speed of sound, 303.15 K [m/s]	speed of sound, 308.15 K [m/s]	speed of sound, 313.15 K [m/s]	speed of sound, 318.15 K [m/s]
m1 = 0.01276	1096.62	1091.6	1086.58	1081.57	1076.55	1483.5	1466.6	1449.8	1433.1	1416.5
m1 = 0.01778	1097.14	1092.12	1087.11	1082.09	1077.08	1483	1466.2	1449.3	1432.6	1416.1
m1 = 0.02681	1098.08	1093.06	1088.05	1083.03	1078.02	1482.2	1465.4	1448.6	1431.9	1415.4
m1 = 0.04025	1099.46	1094.44	1089.43	1084.42	1079.41	1481	1464.2	1447.5	1430.8	1414.3
m1 = 0.05498	1100.96	1095.95	1090.94	1085.93	1080.93	1479.7	1462.9	1446.2	1429.6	1413.1
m1 = 0.06956	1102.43	1097.42	1092.42	1087.41	1082.41	1478.5	1461.7	1445	1428.4	1412
m1 = 0.08753	1104.23	1099.22	1094.22	1089.22	1084.22	1476.9	1460.1	1443.5	1426.9	1410.6
m1 = 0.1103	1106.47	1101.47	1096.47	1091.48	1086.48	1475	1458.2	1441.6	1425.1	1408.8
m1 = 0.1334	1108.73	1103.73	1098.73	1093.74	1088.75	1472.9	1456.3	1439.7	1423.3	1407
m1 = 0.1687	1112.1	1107.11	1102.12	1097.13	1092.14	1470	1453.4	1436.9	1420.5	1404.4

CCCCCCCC[N+]1(C)CCOCC1.O=S(=O)([N-]S(=O)(=O)C(F)(F)F)C(F)(F)F + C[S+](C)[O-]
Details	mass density, 298.15 K [kg/m3]	mass density, 303.15 K [kg/m3]	mass density, 308.15 K [kg/m3]	mass density, 313.15 K [kg/m3]	mass density, 318.15 K [kg/m3]	speed of sound, 298.15 K [m/s]	speed of sound, 303.15 K [m/s]	speed of sound, 308.15 K [m/s]	speed of sound, 313.15 K [m/s]	speed of sound, 318.15 K [m/s]
m1 = 0.0104	1096.19	1091.17	1086.16	1081.14	1076.13	1483.5	1466.6	1449.8	1433	1416.5
m1 = 0.01752	1096.81	1091.79	1086.78	1081.77	1076.76	1482.7	1465.8	1449	1432.3	1415.8
m1 = 0.0266	1097.59	1092.58	1087.57	1082.56	1077.56	1481.7	1464.8	1448.1	1431.4	1414.9
m1 = 0.03779	1098.55	1093.54	1088.53	1083.53	1078.53	1480.5	1463.7	1446.9	1430.2	1413.8
m1 = 0.04989	1099.57	1094.57	1089.57	1084.57	1079.57	1479.2	1462.4	1445.7	1429	1412.6
m1 = 0.06889	1101.17	1096.17	1091.17	1086.18	1081.19	1477.2	1460.4	1443.7	1427.1	1410.8
m1 = 0.08629	1102.6	1097.62	1092.62	1087.64	1082.65	1475.3	1458.6	1441.9	1425.4	1409.1
m1 = 0.1068	1104.29	1099.3	1094.32	1089.34	1084.36	1473.2	1456.5	1439.9	1423.4	1407.1
m1 = 0.1403	1106.96	1101.99	1097.02	1092.04	1087.08	1469.8	1453.1	1436.6	1420.2	1404
m1 = 0.1703	1109.31	1104.34	1099.38	1094.41	1089.45	1466.8	1450.2	1433.8	1417.4	1401.2

Reference: the NIST ThermoML archive (doi:10.1016/j.jct.2015.04.006)
